From paper PMC11579541, “In vitro, in vivo, and in silico approaches for evaluating the preclinical DMPK profiles of ammoxetine, a novel chiral serotonin and norepinephrine reuptake inhibitor” (Frontiers in Pharmacology, 2024)
Values joined by “and” are separate entries in the source; they are usually repeats but may differ in a detail not shown here. Equal entries are not always repeated.

Columns and labels:
[1] = PPB assay by ultrafiltration, dog plasma; type: in vitro ADME, beagle dogs; conditions: beagle
Method: The PPB of ammoxetine was determined using the ultrafiltration method. Triplicate samples of rat, dog, or human plasma were spiked with ammoxetine at three final concentrations (50, 150, and 450 ng/mL). The spiked plasma samples were then incubated in a 37°C air-bath shaker for 1 h until equilibrium was reached. After incubation, 400 μL of the plasma samples were transferred to pre-saturated ultrafiltration devices. These devices were subsequently centrifuged at 13,800×g and 20°C for 20 min to separate the unbound ammoxetine. 100 μL of the test samples were taken and mixed with 100 μL of the IS, L-phencynonate (50 ng/mL), and 300 μL of methanol. Following centrifugation at 13,800×g for 10 min, the supernatants were used to determine the total and free concentrations of ammoxetine in the plasma (C t , C f ) using an LC-MS-MS method. The PPB rate (%) of ammoxetine was calculated by dividing (C t −C f ) by C t .

CYP 3A4 = CYP 3A4 (Homo sapiens, UniProt P08684); experiment: Phenotyping with recombinant human CYP 3A4; type: in vitro ADME; parameters: purchased BD (Woburn, USA); conditions: 5 μmol/L, 25 pmol/mL CYP, 1 h
Sequence of CYP 3A4 (P08684 whole entry): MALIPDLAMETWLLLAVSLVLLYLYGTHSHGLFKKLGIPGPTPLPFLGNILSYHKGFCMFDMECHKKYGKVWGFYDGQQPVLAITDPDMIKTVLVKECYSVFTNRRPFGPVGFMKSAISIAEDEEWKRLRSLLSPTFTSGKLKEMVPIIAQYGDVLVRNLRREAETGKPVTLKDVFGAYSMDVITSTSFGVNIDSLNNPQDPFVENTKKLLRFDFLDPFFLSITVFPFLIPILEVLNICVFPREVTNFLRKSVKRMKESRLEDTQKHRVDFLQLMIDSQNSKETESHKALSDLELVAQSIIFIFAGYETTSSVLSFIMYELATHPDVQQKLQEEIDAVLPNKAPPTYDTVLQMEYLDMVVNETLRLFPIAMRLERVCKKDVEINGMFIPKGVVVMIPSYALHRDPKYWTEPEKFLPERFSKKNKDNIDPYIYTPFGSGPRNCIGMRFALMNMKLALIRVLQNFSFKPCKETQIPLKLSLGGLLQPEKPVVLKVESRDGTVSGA
Method: Ammoxetine (final concentration 5 μmol/L) was incubated with recombinant human CYP 3A4, CYP 1A2, CYP 2C9, CYP 2C19, and CYP 2D6 (final concentration 25 pmol/mL) in a 5 mmol/L K2HPO4 buffer at pH 7.4. The incubations were performed in quintuplicate. NADPH (final concentration 1 mmol/L) was added to initiate the incubation process. The mixture was then incubated at 37°C for 1 h. To stop the reaction, 200 μL of ice-cold acetonitrile/methanol (1:1, v/v) containing 500 ng/mL of L-phencynonate (IS) was added. The samples were vortexed for 2 min and centrifuged at 13,800×g and 4°C for 10 min. The supernatants obtained were analyzed using an LC-MS-MS method. To establish appropriate controls, zero-time controls and blank controls in the absence of NADPH were set up in parallel.

CYP 2C19 = CYP 2C19 (Homo sapiens, UniProt P33261); experiment: CYP inhibition, cocktail-substrate method in HLM; type: in vitro ADME; parameters: 0.5 mg/mL HLM, 1 mmol/L NADPH, and a cocktail of 10 probe substrates for 9 CYP isoforms; tissue BD (Woburn, USA); host or cells: pooled human liver microsomes; conditions: probe S-mephenytoin
Sequence of CYP 2C19 (P33261 whole entry, canonical isoform): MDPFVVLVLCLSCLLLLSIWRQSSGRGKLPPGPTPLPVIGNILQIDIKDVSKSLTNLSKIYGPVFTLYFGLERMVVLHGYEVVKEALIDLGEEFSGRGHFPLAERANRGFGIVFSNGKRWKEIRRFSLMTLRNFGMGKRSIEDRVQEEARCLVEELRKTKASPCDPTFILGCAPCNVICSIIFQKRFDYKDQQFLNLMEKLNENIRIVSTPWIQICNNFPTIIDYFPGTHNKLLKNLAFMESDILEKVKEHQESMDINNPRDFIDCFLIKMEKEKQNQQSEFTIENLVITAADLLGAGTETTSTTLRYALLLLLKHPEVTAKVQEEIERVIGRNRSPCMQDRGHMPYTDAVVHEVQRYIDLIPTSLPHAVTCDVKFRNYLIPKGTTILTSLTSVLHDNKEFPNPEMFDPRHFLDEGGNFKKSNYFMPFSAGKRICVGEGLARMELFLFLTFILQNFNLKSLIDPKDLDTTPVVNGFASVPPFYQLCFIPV
Method: (§1) To assess the CYP inhibition profiling of ammoxetine, a high-throughput assay based on the cocktail-substrate method was performed, as described in the literature ([Kim et al., 2005]; [Kozakai et al., 2014]). Microsomal incubations were conducted in triplicate for 30 min at 37°C in a reaction system (200 μL) consisting of […] potassium phosphate buffer (pH 7.4), 0.5 mg/mL HLM, 1 mmol/L NADPH, and a cocktail of 10 probe substrates for 9 CYP isoforms. The final concentration of each CYP-specific substrate was chosen to be close to the Michaelis-Menten constant (K m ) value of the respective substrate ([Kim et al., 2005]; [Lee et al., 2024]). For instance, phenacetin (CYP 1A2) was used at a concentration of 50 μmol/L, coumarin (CYP 2A6) at 5 μmol/L, bupropion (CYP 2B6) at 50 μmol/L, amodiaquine (CYP 2C8) at 5 μmol/L, tolbutamide (CYP 2C9) at 100 μmol/L, S-mephenytoin (CYP 2C19) at 100 μmol/L, dextromethorphan (CYP 2D6) at 5 μmol/L, chlorzoxazone (CYP 2E1) at 50 μmol/L, and testosterone and midazolam (CYP 3A4) at 50 μmol/L. Ammoxetine was evaluated at five concentrations: 0.1, 1, 10, 50, and 100 μmol/L. Additionally, a blank control without ammoxetine was included. The incubation was terminated by adding an equal volume of ice-cold acetonitrile/methanol (1:1, v/v) along with the IS, dexmedetomidine (1 ng/mL). After a 20-fold dilution, the mixture was centrifuged at 13,800×g for 10 min at 4°C. The supernatants were used to measure the levels of metabolites from the respective probe substrates using an LC-MS-MS method. The half-maximal inhibitory concentration (IC50) values were subsequently calculated.

CYP 2D6 = CYP 2D6 (Homo sapiens, UniProt P10635); experiment: CYP inhibition, cocktail-substrate method in HLM; type: in vitro ADME; parameters: 0.5 mg/mL HLM, 1 mmol/L NADPH, and a cocktail of 10 probe substrates for 9 CYP isoforms; tissue BD (Woburn, USA); host or cells: pooled human liver microsomes
Sequence of CYP 2D6 (P10635 whole entry, canonical isoform): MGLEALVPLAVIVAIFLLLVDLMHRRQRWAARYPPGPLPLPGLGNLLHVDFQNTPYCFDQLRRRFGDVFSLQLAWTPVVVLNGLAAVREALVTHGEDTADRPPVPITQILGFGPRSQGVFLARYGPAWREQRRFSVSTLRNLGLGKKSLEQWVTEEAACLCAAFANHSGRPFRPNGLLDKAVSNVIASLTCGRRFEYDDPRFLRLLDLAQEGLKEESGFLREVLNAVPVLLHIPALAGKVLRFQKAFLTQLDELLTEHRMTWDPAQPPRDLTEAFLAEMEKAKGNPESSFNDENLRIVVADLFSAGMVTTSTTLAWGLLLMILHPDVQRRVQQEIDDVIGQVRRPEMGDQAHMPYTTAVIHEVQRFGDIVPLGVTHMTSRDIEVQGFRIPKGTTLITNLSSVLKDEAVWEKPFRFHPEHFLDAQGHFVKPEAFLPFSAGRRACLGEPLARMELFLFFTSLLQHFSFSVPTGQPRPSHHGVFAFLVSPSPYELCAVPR
Method: as §1

fraction unbound at 1 h, 50 ng/mL ([1]; 50 ng/mL, read-out: Percentage of ammoxetine-protein binding rate (%) (converted)): 0.464
fraction unbound at 1 h, 150 ng/mL ([1]; 150 ng/mL, read-out: Percentage of ammoxetine-protein binding rate (%) (converted)): 0.468
fraction unbound at 1 h, 450 ng/mL ([1]; 450 ng/mL, read-out: Percentage of ammoxetine-protein binding rate (%) (converted)): 0.423
fraction unbound at 1 h ([1]; approximate range over 50-450 ng/mL, read-out: PPB rate): 0.4 to 0.5
Transformation ratio% (CYP 3A4): 24.49±3.65% and 24.49%
residuary concentration of ammoxetine, Mean±SD (CYP 3A4): 5.18±0.25
IC50 (CYP 2C19): > 100 µM
IC50 (CYP 2D6; HLM, probe dextromethorphan): > 100 µM
probe substrate levels, % of the original blank group (CYP 2D6; ammoxetine 100 μmol/L): approximately 65.86%
Compound: CNCC[C@H](Oc1cccc2c1OCO2)c1cccs1 [ammoxetine]
